Laboratory results from ChEMBL document CHEMBL3763024, “Development of 3-(4-aminosulphonyl)-phenyl-2-mercapto-3H-quinazolin-4-ones as inhibitors of carbonic anhydrase isoforms involved in tumorigenesis and glaucoma” (Bioorg Med Chem, 2016).

How the values were obtained:
Carbonic anhydrase 9 = Carbonic anhydrase 9 (Homo sapiens, UniProt Q16790); assay: Inhibition of human recombinant carbonic anhydrase 9 preincubated for 15 mins by stopped flow CO2 hydration assay
Carbonic anhydrase 1 = Carbonic anhydrase 1 (Homo sapiens, UniProt P00915); assay: Inhibition of human recombinant carbonic anhydrase 1 preincubated for 15 mins by stopped flow CO2 hydration assay
Chain of Carbonic anhydrase 1 (P00915 whole entry): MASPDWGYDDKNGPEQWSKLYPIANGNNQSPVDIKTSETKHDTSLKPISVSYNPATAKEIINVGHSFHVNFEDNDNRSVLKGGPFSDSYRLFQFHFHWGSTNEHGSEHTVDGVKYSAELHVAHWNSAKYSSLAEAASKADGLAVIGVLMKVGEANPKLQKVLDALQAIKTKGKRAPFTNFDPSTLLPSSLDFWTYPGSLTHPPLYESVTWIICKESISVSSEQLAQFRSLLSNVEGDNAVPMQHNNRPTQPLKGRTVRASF

Row | Structure (SMILES) | Ki (Carbonic anhydrase 9) | Ki (Carbonic anhydrase 1)
1 | NS(=O)(=O)c1ccc(-n2c(S)nc3c(Br)cccc3c2=O)cc1 | 4.7 nM | 
2 | NS(=O)(=O)c1ccc(-n2c(S)nc3c(I)cccc3c2=O)cc1 | 14.5 nM | 
3 | COc1cc2c(=O)n(-c3ccc(S(N)(=O)=O)cc3)c(S)nc2c(OC)c1OC | 50.4 nM | 
4 | Cc1ccc2nc(S)n(-c3ccc(S(N)(=O)=O)cc3)c(=O)c2c1 | 16.2 nM | 
5 | COc1ccc2nc(S)n(-c3ccc(S(N)(=O)=O)cc3)c(=O)c2c1 | 3.7 nM | 
6 | NS(=O)(=O)c1ccc(-n2c(S)nc3ccc(Br)cc3c2=O)cc1 | 275 nM | 
7 | COc1cccc2c(=O)n(-c3ccc(S(N)(=O)=O)cc3)c(S)nc12 | 5.1 nM | 
8 | COc1ccc2c(=O)n(-c3ccc(S(N)(=O)=O)cc3)c(S)nc2c1OC | 49.3 nM | 
9 | NS(=O)(=O)c1ccc(-n2c(S)nc3c(Cl)cccc3c2=O)cc1 | 43.9 nM | 
10 | NS(=O)(=O)c1ccc(-n2c(S)nc3ccc(Cl)cc3c2=O)cc1 | 34.9 nM | 
11 | NS(=O)(=O)c1ccc(-n2c(S)nc3c(F)cccc3c2=O)cc1 | 45.4 nM | 
12 | NS(=O)(=O)c1ccc(-n2c(S)nc3cc(Cl)ccc3c2=O)cc1 | 157 nM | 
13 | COc1ccc2c(=O)n(-c3ccc(S(N)(=O)=O)cc3)c(S)nc2c1 |  | > 10000 nM
14 | NS(=O)(=O)c1ccc(-n2c(S)nc3cc(Br)ccc3c2=O)cc1 | 163 nM | 
15 | Cc1cc(C)c2nc(S)n(-c3ccc(S(N)(=O)=O)cc3)c(=O)c2c1 | 17.5 nM | 
16 | Cc1cccc2c(=O)n(-c3ccc(S(N)(=O)=O)cc3)c(S)nc12 | 35.6 nM | 
